Earlier results on 2 compounds are cited in US20070003628A1, “Nanoparticulate clopidogrel formulations” (Elan Pharma International Limited, priority 2005, published 2007).

Where a name gives a salt, the structure may show the parent alone. Read-outs that look alike come from different tables or passages of the source.

Test in data set [1]: not given
This is another data set of the same source.

For the compound `COC(=O)[C@H](c1ccccc1Cl)N1CCc2sccc2C1` [Clopidogrel bisulfate, methyl (+)-(S)-α-(2-chorophenyl)-6,7-dihydrothieno[3,2-c]pyridine-5(4H)-acetate sulfate (1:1)], the “solubility in ethyl ether” value (ethyl ether) is “practically insoluble”. Moreover, under “methanol”, the solubility in methanol result was “dissolves freely”. Also, the “solubility in methylene chloride” value (methylene chloride) is recorded as “dissolves sparingly”. The solubility in water result is, setting by setting: (pH 1.0) “freely soluble”; (water at neutral pH) “practically insoluble”. For the same compound, in data set [1] (patients with acute coronary syndrome), the “rate of a combined end point of cardiovascular death, MI, or stroke, and of cardiovascular death, MI, stroke, or refractory ischemia” value is “decrease the rate”. The “rate of a combined end point of new ischemic stroke, new MI, and other vascular death” value in data set [1] (recent myocardial infarction, recent stroke or established arterial disease) was “reduce the rate”.

On to `COC(=O)[C@H](c1ccccc1Cl)N1CCc2sccc2C1` [clopidogrel], for which, for the setting “water, pH not stated”, the solubility in water entry is “practically insoluble”.
